{"source": "paper PMC8909594", "about": "“Direct Interaction of Mitochondrial Cytochrome c Oxidase with Thyroid Hormones: Evidence for Two Binding Sites” (Cells, 2022)", "key": {"[1]": {"target": "solubilized CcO from mitochondria", "details": "read-out: Kc (dissociation constant for DM), cited from earlier work"}, "[2]": {"target": "T1, solubilized cytochrome c oxidase (CcO) from bovine heart mitochondria (Bos taurus, UniProt P00396+P68530)", "T1 construct": "Cytochrome c oxidase (CcO) was purified from heart mitochondria of Bos taurus; from tissue; host or cells: bovine heart mitochondria", "assay": "Oxidase activity of solubilized CcO, oxygen consumption (Clark-type electrode)", "type": "biochemical", "details": "for Kd: read-out: Kc, dissociation constant of the DM-CcO complex", "quoted_text": "Preparations. Cytochrome c oxidase (CcO) was purified from heart mitochondria of Bos taurus. […] CcO was isolated according to a modified method of Fowler et al. [21] described previously [22]."}, "mitochondrial CcO": {"tested_on": "mitochondrial CcO", "set-up": "method as in PMID 8013649", "details": "0.2 μM enzyme; cited from earlier work"}, "[3]": {"tested_on": "T2, cytochrome c oxidase (CcO)", "T2 construct": "Cytochrome c oxidase (CcO) was purified from heart mitochondria of Bos taurus; from tissue; host or cells: bovine heart mitochondria", "assay": "Peroxidase activity of CcO (ferrocyanide peroxidation)", "type": "biochemical, Bos taurus", "details": "for rate of peroxidase reaction: 0.5 mM hormone, control […] e−/s, error about 10%", "method": "To obtain a redox buffer with Em ≈ 420 mV, equal amounts of ferri- and ferrocyanide were mixed. To facilitate the interaction of ferrocyanide with CcO, 0.2 μM cytochrome c was present.\nPeroxidation of ferrocyanide (0.2 mM) was monitored in the presence of 0.6 μM CcO. […] Trace 1, black = control; trace 2, red = the experiment in the presence of 1 mM T4; trace 3, blue = 1 mM T4 added in the course of the experiment, as indicated."}, "CcO in proteoliposomes": {"tested_on": "T3, CcO in proteoliposomes", "T3 construct": "Cytochrome c oxidase (CcO) was purified from heart mitochondria of Bos taurus; from tissue; host or cells: bovine heart mitochondria", "assay": "Ferrocytochrome c oxidation by CcO in proteoliposomes", "type": "biochemical, Bos taurus", "method": "CcO reconstruction into phospholipid vesicles.\nCytochrome c was reduced beforehand by dithionite.\nFigure 2 Inhibitory effect of thyroid hormones on the oxidase activity of the membrane-incorporated CcO. […] Proteoliposomes were added to the experimental medium up to 26 nM CcO. The oxidase reaction was initiated by addition of the respiratory substrate. Other details are as in Figure 1B,D. (D) T3-induced inhibition of ferrocytochrome c oxidation by CcO in proteoliposomes. […] Other conditions are as in panel (A) except that proteoliposomes were added to the medium up to 3.25 nM CcO and pre-incubated for 30 min before adding the respiratory substrate. […] Mitochondria were suspended in the experimental medium up to 0.8 mg of protein/mL. Other details are as in Figure 1B,D. (F) Inhibitory effect of T4 on CcO oxidase activity in SMP obtained from bovine heart mitochondria. The conditions were essentially as in panel (E) except that the CcO concentration was 20 nM."}, "[4]": {"tested_on": "cytochrome c oxidase (electron transfer from heme a to heme a3)", "assay": "Level and kinetics of heme a / heme a3 reduction in CcO", "details": "pH 8.0, 5 μM RuAm, 5 mM ascorbate", "procedure": "The kinetics of spectral changes were monitored on spectrophotometer SLM Aminco DW-2000 (SLM Instruments, Urbana, IL, USA) in dual-wavelength mode.\nThe oxidase reaction was carried out using ascorbate (as an electron source) in combination with the redox mediators RuAm and TMPD. The reduction of CcO was monitored spectrophotometrically.\nThe total reduction level of hemes a and a3 was registered. […] The other conditions were as in panel (A) except that 0.1 mM TMPD was used instead of RuAm."}, "[5]": {"target": "CcO incorporated into azolectin vesicles (proteoliposomes) (Bos taurus, UniProt P00396+P68530)", "assay": "Oxidase activity of CcO in proteoliposomes, oxygen consumption", "procedure": "First, the effect of thyroid hormones on CcO incorporated into azolectin vesicles was studied. The activity was assayed in the same way as in solution except for the absence of detergent and presence of protonophore in the medium (see Section 2)."}, "[6]": {"target": "mitochondrial cytochrome c oxidase (CcO) (Bos taurus, UniProt P00426)", "assay": "Superoxide generation by CcO in excess H2O2 (WST-1 reduction)", "procedure": "The reaction of superoxide generation catalyzed by CcO in the presence of excess hydrogen peroxide was assayed in the basic medium, pH 7.6 by the classic method [27], monitoring the superoxide dismutase-sensitive reduction of tetrazolium salts to formazan.\nAddition of 0.4 µM T4 is indicated. CcO was added up to 0.5 μM to the experimental medium, supplemented with 0.1 mM WST-1. The reaction was initiated by addition of 4 mM H2O2 (indicated by the arrow). […] Conditions of the measurements are as in panel (A)."}, "[7]": {"tested_on": "T4, xanthine oxidase from bovine milk", "T4 construct": "xanthine oxidase from bovine milk; purchased Sigma-Aldrich; host or cells: bovine milk", "assay": "Superoxide formation by xanthine oxidase oxidizing hypoxanthine (test for superoxide dismutase activity)", "type": "biochemical", "details": "hypoxanthine 50 μM, XOx 0.015 units/mL; 500 μM T4; SOD 20 μg/mL", "source_text": "The conditions were adjusted so that the rate of WST reduction was approximately the same as in panel (A)."}, "[8]": {"target": "T5, CcO in SMP obtained from bovine heart mitochondria (Bos taurus, UniProt P00396+P68530)", "T5 construct": "Then, CcO in the native mitochondrial membrane was investigated; from tissue; host or cells: bovine heart submitochondrial particles", "assay": "CcO oxidase activity in bovine heart submitochondrial particles (SMP)", "type": "biochemical", "method": "Preparation of bovine heart submitochondrial particles (SMP). The heavy fraction of bovine heart mitochondria was suspended in 40 mL of 0.3 M sucrose supplemented with 5 mM MgSO4, 1 mM succinate, 1 mM ATP and 10 mM Hepes, pH 8.0. […] Mitochondrial debris was removed by centrifugation for 12 min at 15,000 rpm (Beckman JA-20, Brea, CA, USA). SMP were precipitated from supernatant at 100,000 g for 1 h, washed by 0.3 M sucrose with 10 mM Hepes, pH 7.5 and precipitated as previously described. The final precipitate was suspended in a small volume of the same buffer and frozen. To determine the CcO concentration in the sample, a small amount of SMP was solubilized in 50 mM Hepes/Tris buffer, pH 7.6 containing 1% DM."}, "[9]": {"tested_on": "T6, oxidized cytochrome c oxidase (CcO)", "T6 construct": "Cytochrome c oxidase (CcO) was purified from heart mitochondria of Bos taurus; from tissue; host or cells: bovine heart mitochondria", "assay": "Formation of CcO oxoferryl intermediates FI-607 and FII-580 with H2O2 (titration, stopped-flow)", "type": "biochemical, Bos taurus", "method": "Stopped-flow experiments were performed using a stopped-flow spectrophotometer (Applied Photophysics SX-20, Leatherhead, UK) operated in the diode array mode, using a 20-μL cell with a 1-cm optical pathway.\nOxoferryl intermediates’ formation was monitored using stopped-flow techniques. CcO in the basic medium, pH 8.1 supplemented with 0.1% DM, 0.05 mM ferricyanide and when necessary, T4 was rapidly mixed with an equal volume of the same buffer containing H2O2.\nWe carried out such a titration to evaluate the effects of thyroid hormones on the equilibrium of oxoferryl intermediates.\nFigure 6 Effect of T4 on the formation of CcO oxoferryl intermediates during the reaction with H2O2. The reaction was followed using a diode array spectrophotometer. […] (A, B) Kinetics of the oxoferryl intermediates’ formation. […] (A) Control; (B) CcO was pre-incubated with 0.5 mM T4 until mixing."}, "[10]": {"tested_on": "cytochrome c oxidase (CcO)", "assay": "Catalase activity of CcO (oxygen release from H2O2)", "details": "higher hormone concentration (curve 4, 1 mM)", "procedure": "The catalase activity of CcO was detected by a Clark-type electrode in the presence of excess hydrogen peroxide, in 30 mM potassium-phosphate buffer, pH 7.1 supplemented with 2 mM EDTA and 0.05% DM, as described in [26]."}}, "note": "Values joined by “and” are separate entries in the source; they are usually repeats but may differ in a detail not shown here. Equal values may be shown once. “Also recorded” adds a separate entry of the source. Read-outs that look alike come from different tables or passages of the source.", "data": [{"compound": "CCCCCCCCCCCCO[C@@H]1O[C@H](CO)[C@@H](O[C@H]2O[C@H](CO)[C@@H](O)[C@H](O)[C@H]2O)[C@H](O)[C@H]1O", "note": "[DM, dodecyl-maltoside]", "values": [{"measurement": "Kd", "setting": "[1]; from study of CcO inhibition by Triton X-100", "value": 1200, "unit": "µM"}, {"measurement": "Kd", "setting": "[1]; from study of CcO inhibition by estradiol", "value": 1470, "unit": "µM"}, {"measurement": "Kd", "setting": "[1]; from study of CcO inhibition by testosterone", "value": 1300, "unit": "µM"}, {"measurement": "Kd", "setting": "[2]; from competition with T3 (T3=0)", "value": "~1120", "unit": "µM"}, {"measurement": "Kd", "setting": "[2]; from competition with T4 (T4=0)", "value": "~1100", "unit": "µM"}]}, {"compound": "N[C@@H](Cc1cc(I)c(Oc2ccc(O)cc2)c(I)c1)C(=O)O", "note": "[T2, 3,5-diiodo-thyronine]", "values": [{"measurement": "concentration from which effects of T2 start", "setting": "mitochondrial CcO", "value": "10^−7 M"}, {"measurement": "rate of peroxidase reaction", "setting": "[3]", "value": 0.21, "unit": "e^−/s"}]}, {"compound": "N[C@@H](Cc1cc(I)c(Oc2ccc(O)c(I)c2)c(I)c1)C(=O)O", "note": "[T3, L-3,5,3′-triiodide-thyronine]", "values": [{"measurement": "time of enzyme activity after which inhibition develops", "setting": "CcO in proteoliposomes; 0.5 mM T3 (~450 turnovers)", "value": 10, "unit": "s"}, {"measurement": "decrease in the activity compared to the control", "setting": "CcO in proteoliposomes; 0.5 mM T3, pre-incubation 30 min, 3.25 nM CcO", "value": "approximately twofold decrease"}, {"measurement": "increase of steady-state level of heme a reduction over control", "setting": "[4]; 1 mM hormone", "value": "~ 75%"}, {"measurement": "increase of steady-state level of heme a reduction over control", "setting": "[4]; 2 mM hormone", "value": "~ 115%"}]}, {"compound": "N[C@@H](Cc1cc(I)c(Oc2cc(I)c(O)c(I)c2)c(I)c1)C(=O)O", "note": "[T4, L-3,5,3′,5′tetraiodo-thyronine]", "values": [{"measurement": "Ki", "setting": "[5]", "value": 310, "unit": "µM"}, {"measurement": "increase of steady-state level of heme a reduction over control", "setting": "[4]; 1 mM hormone", "value": "~ 50%"}, {"measurement": "Ki", "setting": "[6]", "value": 0.3, "unit": "µM"}, {"measurement": "drop of the rate of WST-1 reduction (superoxide production)", "setting": "[6]; 0.4 μM T4", "value": "drops threefold"}, {"measurement": "effect on the rate of dye (WST) reduction", "setting": "[7]", "value": "does not affect the rate of dye reduction"}, {"measurement": "extent of inhibition", "setting": "[8]", "value": "complete inhibition"}, {"measurement": "Ki", "setting": "[8]; 20 nM CcO", "value": "2200 ± 200", "unit": "µM"}, {"measurement": "decrease of the rate of oxygen consumption", "setting": "[2]; […] T4, 20 nM CcO", "value": "approximately two times"}, {"measurement": "extent of inhibition of enzyme activity", "setting": "[2]; lowest tested DM concentrations (0.02% and 0.05%)", "value": "70–80%"}, {"measurement": "Ki", "setting": "[2]; oxygen consumption, pH 7.6, 25 °C, from linear dependence of Ki(app) on [DM] 0.4–10 mM, DM=0, read-out: true inhibition constant Ki (in the absence of DM)", "value": "~100 µM and 100 µM"}, {"measurement": "Ki", "setting": "[2]; solubilized enzyme, Figure 1C,E, read-out: Ki", "value": "~100", "unit": "µM"}, {"measurement": "rate of peroxidase reaction", "setting": "[3]", "value": 0.22, "unit": "e^−/s"}, {"measurement": "effect on the rate of ferrocyanide peroxidation", "setting": "[3]; 1 mM T4, 0.6 μM CcO, 4 mM H2O2", "value": "does not noticeably change; also recorded: complete resistance"}, {"measurement": "deviation of FI-607 (lower) and FII-580 (higher) concentration from control", "setting": "[9]; 0.5 mM T4, 15 s after mixing", "value": "about 10%"}, {"measurement": "acceleration of formation of FII-580 (form 580)", "setting": "[9]; 0.5 mM hormone", "value": "23% and 20–25%"}, {"measurement": "decrease in the quasi-stationary concentration ratio [FI-607]/[FII-580] vs control", "setting": "[9]; 0.5 mM hormone, titration of oxidized CcO with peroxide", "value": "15–25%"}, {"measurement": "suppression of catalase activity", "setting": "[10]", "value": "10–20%"}]}, {"compound": "superoxide dismutase: superoxide dismutase from bovine erythrocytes, control blocking WST reduction", "values": [{"measurement": "effect on the rate of dye (WST) reduction", "setting": "[7]", "value": "completely blocked"}]}]}
